Earlier results, collected in patent publication US10864193B2, “Parasiticidal compositions comprising fipronil at high concentrations” (BOEHRINGER INGELHEIM ANIMAL HEALTH USA INC., priority 2014, dated 2020).

Conditions: beagle dogs, spot-on administration, 14C radiolabeled drug

Question: Which “time persistently detected in the whole skin after treatment” value does the source give for N#Cc1nn(-c2c(Cl)cc(C(F)(F)F)cc2Cl)c(N)c1[S+]([O-])C(F)(F)F (stereo not shown) [fipronil, 5-amino-3-cyano-1-(2,6-dichloro-4-trifluoromethylphenyl)-4-trifluoromethylsulfinylpyrazole] here?
Answer: up to 56 days
